Assay results as given in ChEMBL document CHEMBL5303573, “Mapping human microbiome drug metabolism by gut bacteria and their genes” (Nature, 2019).

How the values were obtained:
[1] = The drug is tested on Collinsella intestinalis strain: DSM13280 for biotransformation. The drug concentrations were measured before and after a 12-h incubation by liquid-chromatography-coupled mass spectrometry (LC–MS); conditions: 2 µM
[2] = The drug is tested on Alistipes indistinctus strain: DSM22520 for biotransformation. The drug concentrations were measured before and after a 12-h incubation by liquid-chromatography-coupled mass spectrometry (LC–MS); conditions: 2 µM
[3] = The drug is tested on Bacteroides finegoldii strain: DSM17565 for biotransformation. The drug concentrations were measured before and after a 12-h incubation by liquid-chromatography-coupled mass spectrometry (LC–MS); conditions: 2 µM
[4] = The drug is tested on Bacteroides fragilis strain: ATCC43859 for biotransformation. The drug concentrations were measured before and after a 12-h incubation by liquid-chromatography-coupled mass spectrometry (LC–MS); conditions: 2 µM
[5] = The drug is tested on Bacteroides pectinophilus strain: ATCC43243 for biotransformation. The drug concentrations were measured before and after a 12-h incubation by liquid-chromatography-coupled mass spectrometry (LC–MS); conditions: 2 µM
[6] = The drug is tested on Bacteroides xylanisolvens strain: DSM18836 for biotransformation. The drug concentrations were measured before and after a 12-h incubation by liquid-chromatography-coupled mass spectrometry (LC–MS); conditions: 2 µM
[7] = The drug is tested on Blautia hansenii strain: DSM20583 for biotransformation. The drug concentrations were measured before and after a 12-h incubation by liquid-chromatography-coupled mass spectrometry (LC–MS); conditions: 2 µM
[8] = The drug is tested on Blautia luti strain: DSM14534 for biotransformation. The drug concentrations were measured before and after a 12-h incubation by liquid-chromatography-coupled mass spectrometry (LC–MS); type: ADME; parameters: dose 2 uM, timepoint 0 vs 12 hours; conditions: 2 µM
[9] = The drug is tested on Clostridium ramosum strain: DSM1402 for biotransformation. The drug concentrations were measured before and after a 12-h incubation by liquid-chromatography-coupled mass spectrometry (LC–MS); conditions: thomasclavelia ramosa, 2 µM
[10] = The drug is tested on Clostridium sporogenes strain: ATCC15579 for biotransformation. The drug concentrations were measured before and after a 12-h incubation by liquid-chromatography-coupled mass spectrometry (LC–MS); conditions: 2 µM
[11] = The drug is tested on Coprococcus comes strain: ATCC27758 for biotransformation. The drug concentrations were measured before and after a 12-h incubation by liquid-chromatography-coupled mass spectrometry (LC–MS); type: ADME; parameters: dose 2 uM, timepoint 0 vs 12 hours; conditions: 2 µM
[12] = The drug is tested on Eubacterium ventriosum strain: ATCC27560 for biotransformation. The drug concentrations were measured before and after a 12-h incubation by liquid-chromatography-coupled mass spectrometry (LC–MS); type: ADME; parameters: dose 2 uM, timepoint 0 vs 12 hours; conditions: 2 µM
[13] = The drug is tested on Subdoligranulum variabile strain: DSM15176 for biotransformation. The drug concentrations were measured before and after a 12-h incubation by liquid-chromatography-coupled mass spectrometry (LC–MS); conditions: 2 µM
[14] = The drug is tested on Providencia stuartii strain: ATCC25827 for biotransformation. The drug concentrations were measured before and after a 12-h incubation by liquid-chromatography-coupled mass spectrometry (LC–MS); conditions: 2 µM
[15] = bacteroides fragilis, 12 h, 2 µM
Description: The drug is tested on Bacteroides fragilis strain: 3397 (T10) for biotransformation. The drug concentrations were measured before and after a 12-h incubation by liquid-chromatography-coupled mass spectrometry (LC–MS)

[16] = bacteroides thetaiotaomicron, 12 h, 2 µM
Description: The drug is tested on Bacteroides thetaiotaomicron strain: 3731 for biotransformation. The drug concentrations were measured before and after a 12-h incubation by liquid-chromatography-coupled mass spectrometry (LC–MS)

[17] = bacteroides thetaiotaomicron, 12 h, 2 µM; remark: listed apart in the source
Description: The drug is tested on Bacteroides thetaiotaomicron strain: 7330 for biotransformation. The drug concentrations were measured before and after a 12-h incubation by liquid-chromatography-coupled mass spectrometry (LC–MS)

[18] = segatella copri, 12 h, 2 µM
Description: The drug is tested on Prevotella copri strain: DSM18205 for biotransformation. The drug concentrations were measured before and after a 12-h incubation by liquid-chromatography-coupled mass spectrometry (LC–MS)

[19] = enterocloster bolteae, 12 h, 2 µM
Description: The drug is tested on Clostridium bolteae strain: ATCCBAA-613 for biotransformation. The drug concentrations were measured before and after a 12-h incubation by liquid-chromatography-coupled mass spectrometry (LC–MS)

[20] = akkermansia muciniphila, 12 h, 2 µM
Description: The drug is tested on Akkermansia muciniphila strain: ATCC BAA-835 for biotransformation. The drug concentrations were measured before and after a 12-h incubation by liquid-chromatography-coupled mass spectrometry (LC–MS)

Structure (SMILES): CCC(COC(=O)c1cc(OC)c(OC)c(OC)c1)(c1ccccc1)N(C)C.O=C(O)/C=C\C(=O)O (stereo not given)
- Bacterial Biotransformation [1]: Compound metabolized
- Bacterial Biotransformation [2]: Compound metabolized
- Bacterial Biotransformation [3]: Compound metabolized
- Bacterial Biotransformation [4]: Compound NOT metabolized
- Bacterial Biotransformation [5]: Compound metabolized
- Bacterial Biotransformation [6]: Compound metabolized
- Bacterial Biotransformation [7]: Compound metabolized
- Bacterial Biotransformation [8]: Compound metabolized
- Bacterial Biotransformation [9]: Compound NOT metabolized
- Bacterial Biotransformation [10]: Compound metabolized
- Bacterial Biotransformation [11]: Compound metabolized
- Bacterial Biotransformation [12]: Compound metabolized
- Bacterial Biotransformation [13]: Compound metabolized
- Bacterial Biotransformation [14]: Compound NOT metabolized
- Bacterial Biotransformation [15]: Compound metabolized
- Bacterial Biotransformation [16]: Compound metabolized
- Bacterial Biotransformation [17]: Compound metabolized
- Bacterial Biotransformation [18]: Compound metabolized
- Bacterial Biotransformation [19]: Compound metabolized
- Bacterial Biotransformation [20]: Compound metabolized
